According to US20060258713A1, “Treatment of pain” (Wyeth, priority 2005, published 2006):

Tested on: Male Sprague-Dawley rats
Test: L5 spinal nerve ligation (SNL) tactile allodynia model, von Frey thresholds
Type: in vivo, rat
Conditions: 0.3, 1 or 3 mg/kg i.p., thresholds up to 60, 180 and 300 minutes after dosing, reversal of tactile allodynia, FIG. 1
Description: Compound 1, (7-(2,6-dichlorophenyl)-5-fluoro-2,3-dihydrobenzofuran-2-yl)methanamine, was obtained from Wyeth compound repository and gabapentin was purchased from Toronto Research Chemicals (Ontario, Canada) and […]. Compound 1 was dissolved in sterile saline and gabapentin was suspended in 2% Tween 80 in 0.5% methylcellulose and sterile water. All compounds were administered intraperitoneally (i.p.).
Male Sprague-Dawley rats (125-150 g, Harlan; Indianapolis, Ind.) were individually housed on bedding. For all studies animals were maintained in climate-controlled rooms on a 12-hour light/dark cycle (lights on at 0630) with food and water available ad libitum. […]
Assessment of Tactile Allodynia (Tactile Sensitivity): Tactile thresholds were assessed using a series of calibrated von Frey monofilaments (Stoelting; Wood Dale, Ill.). The threshold that produced a 50% likelihood of a withdrawal was determined using the up-down method, as previously described (Chaplan et al., 1994).
Animals were placed in elevated wire cages and allowed 45-60 minutes to acclimate to the testing room. […] The lowest force that evoked a brisk withdrawal response to the stimuli determined the pain threshold. Tactile thresholds were determined on the day prior to surgery and rats with baseline thresholds <10 g force were excluded from studies. […]

## NCC1Cc2cc(F)cc(-c3c(Cl)cccc3Cl)c2O1 (stereo not shown) [Compound 1, (7-(2,6-dichlorophenyl)-5-fluoro-2,3-dihydrobenzofuran-2-yl)methanamine]
  effectiveness in the tactile allodynia model: effectiveness
